# What was measured:
# [1] = DSC of thermal behaviour of nanoparticles; assay type: physicochemical
# [2] = Curcumin release in simulated gastric fluid (SGF); assay type: physicochemical; details: pH 2.0, pepsin, 37℃, 100 rpm, sampling to 90 min
smiles,measurement,setting,value
"COc1cc(/C=C/C(=O)CC(=O)/C=C/c2ccc(O)c(OC)c2)ccc1O [Cur, 姜黄素]",characteristic decomposition peak of curcumin,[1],179.2 °C
same,curcumin release rate,[2],60.5%

# Reference: patent CN113730373A, “一种递送姜黄素的zein-AOS复合纳米颗粒及其制备方法” (Zhejiang Ocean University ZJOU, priority 2021, dated 2021)
